This note sets out measurements from patent US20250326771A1, “PIPERAZINE DERIVATIVES USEFUL IN HIV THERAPY” (VIIV HEALTHCARE COMPANY, priority 2022, published 2025).

SMILES strings stand for the structures.

The target of one experiment is cIAP1-BIR3 (Homo sapiens (Human), UniProt Q13490). Kind of experiment: BIR binding assay (FRET competition), cIAP1 BIR3. The following applies: for cIAP1 BIR3 vs BIR2 separation window: fold separation (FS) for cIAP1. The procedure, abridged: (§1)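 His-tagged domains (50 nM cIAP1-BIR3, 325 nM cIAP2-BIR2, 325 nM cIAP1-BIR2, 100 nM XIAP-BIR3) compete with compounds for a 200 nM AlexaFluor647-labelled SMAC/DIABLO peptide in HEPES buffer, pH 7.4, for 60 min. Then 2 nM Eu-W1024 is added for 30 min. The 615/665 nm ratio is fit by four-parameter fit to give IC50.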
cIAP1-BIR3, sequence (Q13490 253-363): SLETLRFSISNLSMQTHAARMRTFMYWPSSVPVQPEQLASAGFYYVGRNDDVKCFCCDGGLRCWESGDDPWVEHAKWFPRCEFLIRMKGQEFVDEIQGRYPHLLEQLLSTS

The next experiment deals with cIAP2-BIR2 (Homo sapiens (Human), UniProt Q13489). In words: BIR binding assay (FRET competition), cIAP2 BIR2. A digest of the protocol: as §1
cIAP2-BIR2, sequence (Q13489 158-242): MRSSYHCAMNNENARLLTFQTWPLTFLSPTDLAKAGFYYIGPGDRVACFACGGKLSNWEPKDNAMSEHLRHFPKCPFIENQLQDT
In another experiment the target is cIAP1-BIR2 (Homo sapiens (Human), UniProt Q13490). In words: BIR binding assay (FRET competition), cIAP1 BIR2. A digest of the protocol:
as §1

A further experiment addresses cIAP2-BIR3 (Homo sapiens (Human), UniProt Q13489). In words: BIR binding assay (FRET competition), cIAP2 BIR3. The following applies: for cIAP2 BIR3 vs BIR2 separation window: fold separation (FS) for cIAP2.
Experiment [1] concerns Jurkat HIV-luciferase clones. Kind of experiment: Jurkat latency reversal assay. The format is cell-based. The following applies: Homo sapiens, 48 h; Jurkat latency reversal assay potency; read-out: Jurkat pEC50 (converted). The procedure, abridged: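 EC50 and maximal activation versus vehicle were derived by four-parameter logistic regression of luciferase luminescence. The luminescence was induced in pooled Jurkat HIV-luciferase clones C16, 115 and N6 (5,000 cells/well) after 48 h at 37° C with duplicate 14-point, 3-fold dilutions starting at 10 μM (0.5% DMSO).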

In a further experiment the target is XIAP-BIR3 (Homo sapiens (Human), UniProt P98170). In words: BIR binding assay (FRET competition), XIAP BIR3. The procedure, abridged:
as §1

As a reminder, the IC50 is the concentration that inhibits the measured activity by half. Higher therefore signals a need for much substance.

cIAP2-BIR3, sequence (Q13489 238-349): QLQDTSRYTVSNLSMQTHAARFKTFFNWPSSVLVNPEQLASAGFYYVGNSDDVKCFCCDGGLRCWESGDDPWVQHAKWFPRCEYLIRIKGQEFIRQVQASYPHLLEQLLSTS
XIAP-BIR3, sequence (P98170 241-356): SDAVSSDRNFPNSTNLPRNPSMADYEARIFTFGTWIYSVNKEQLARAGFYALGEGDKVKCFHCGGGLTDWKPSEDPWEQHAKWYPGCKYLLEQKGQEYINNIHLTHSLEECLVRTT
cIAP1-BIR2, sequence (Q13490 173-257): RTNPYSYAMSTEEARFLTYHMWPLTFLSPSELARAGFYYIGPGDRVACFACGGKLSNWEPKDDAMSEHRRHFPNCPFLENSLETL

For `C[C@@H]1CN(CC(=O)N2CC(C)(C)c3[nH]c(=O)c(Cc4cc(F)c(F)c(F)c4F)cc32)[C@@H](CN2CCO[C@H](C(=O)NCc3ccc(CNC(=O)[C@@H]4CN(C[C@H]5CN[C@H](C)CN5CC(=O)N5CC(C)(C)c6[nH]c(=O)c(Cc7cc(F)c(F)c(F)c7F)cc65)CCO4)cc3)C2)CN1` [Compound 174, (2S,2′S)-N,N′-(1,4-phenylenebis(methylene)) bis(4-(((2R,5R)-1-(2-(3,3-dimethyl-5-oxo-6-(2,3,4,5-tetrafluorobenzyl)-2,3,4,5-tetrahydro-1H-pyrrolo[3,2-b]pyridin-1-yl)-2-oxoethyl)-5-methylpiperazin-2-yl)methyl)morpholine-2-carboxamide)], the “cIAP1 BIR3 (pIC50)” value on cIAP1-BIR3 (FRET competition) is “+++ (8.10>pIC50>=7.80)”. Besides, at cIAP1-BIR3, the “cIAP1 BIR3 vs BIR2 separation window” value is “+++ (10,000>FS>1,000)”. Also, the “cIAP2 BIR2 (pIC50)” value on cIAP2-BIR2 (FRET competition) is “++ (5.00<pIC50<=5.50)”. The “cIAP1 BIR2 (pIC50)” value on cIAP1-BIR2 (FRET competition) is recorded as “++ (5.00<pIC50<=5.50)”. Also, the “cIAP2 BIR3 (pIC50)” value at cIAP2-BIR3 (FRET competition) is reported as “+++ (8.10>pIC50>=7.80)”. Besides, the “cIAP2 BIR3 vs BIR2 separation window” value on cIAP2-BIR3 is on record as “+++ (10,000>FS>1,000)”. Besides, the EC50 in experiment [1] is 0.49 to 12.6 nM. Besides, the “XIAP BIR3 (pIC50)” value on XIAP-BIR3 (FRET competition) is “++ (7.80>pIC50>=7.50)”.
As for `C[C@@H]1CN(CC(=O)N2CC(C)(C)c3[nH]c(=O)c(Cc4ccc(F)cc4)cc32)[C@@H](CN2CCO[C@H](COc3cc(F)cc(OC[C@@H]4CN(C[C@H]5CN[C@H](C)CN5CC(=O)N5CC(C)(C)c6[nH]c(=O)c(Cc7ccc(F)cc7)cc65)CCO4)c3)C2)CN1` [Example 73, 1,1′-(2,2′-((3R,3′R,6R,6′R)-(((2S,2'S)-(((5-fluoro-1,3-phenylene)bis(oxy))bis(methylene))bis(morpholine-2,4-diyl))bis(methylene))bis(3-methylpiperazine-6,1-diyl))bis(acetyl))bis(6-(4-fluorobenzyl)-3,3-dimethyl-1,2,3,4-tetrahydro-5H-pyrrolo[3,2-b]pyridin-5-one)], the IC50 at cIAP1-BIR3 fell in the range of 7.94 to 15.8 nM; at cIAP2-BIR2, 3160 to 10000 nM; on cIAP1-BIR2, 3160 to 10000 nM; on cIAP2-BIR3, 1.38 to 7.94 nM; on XIAP-BIR3, 15.8 to 31.6 nM. Moreover, the “cIAP1 BIR3 vs BIR2 separation window” value at cIAP1-BIR3 is “+++ (10,000>FS>1,000)”. On cIAP2-BIR3, the “cIAP2 BIR3 vs BIR2 separation window” value is “+++ (10,000>FS>1,000)”. Besides, the EC50 in experiment [1] is 0.49 to 12.6 nM.
For `C[C@@H]1CN(CC(=O)N2CC(C)(C)c3[nH]c(=O)c(Cc4ccc(F)cc4)cc32)[C@@H](CN2CCN(C(=O)/C=C/c3ccc(/C=C/C(=O)N4CCN(C[C@H]5CN[C@H](C)CN5CC(=O)N5CC(C)(C)c6[nH]c(=O)c(Cc7ccc(F)cc7)cc65)[C@H](C)C4)cc3)C[C@H]2C)CN1` [Example 14, 1,1′-(2,2′-((3R,3′R,6R,6′R)-(((2R,2′R)-((2E,2′E)-3,3′-(1,4-phenylene)bis(acryloyl))bis(2-methylpiperazine-4,1-diyl))bis(methylene))bis(3-methylpiperazine-6,1-diyl))bis(acetyl))bis(6-(4-fluorobenzyl)-3,3-dimethyl-1,2,3,4-tetrahydro-5H-pyrrolo[3,2-b]pyridin-5-one)], the IC50 on cIAP1-BIR3 was 15.8 to 31.6 nM; at cIAP2-BIR2, 22.4 to 1000 nM; on cIAP1-BIR2, 22.4 to 1000 nM; on cIAP2-BIR3 it was 15.8 to 31.6 nM; on XIAP-BIR3, 15.8 to 31.6 nM. In addition, the “cIAP1 BIR3 vs BIR2 separation window” value at cIAP1-BIR3 is “++ (1,000>FS>100)”. In addition, on cIAP2-BIR3, the “cIAP2 BIR3 vs BIR2 separation window” value was “++ (1,000>FS>100)”. Also, in experiment [1], the EC50 is 63.1 to 316 nM.
`C[C@@H]1CN(CC(=O)N2CC(C)(C)c3[nH]c(=O)c(Cc4ccc(Cl)cc4C#N)cc32)[C@@H](CN2CCO[C@H](COc3cccc(OC[C@@H]4CN(C[C@H]5CN[C@H](C)CN5CC(=O)N5CC(C)(C)c6[nH]c(=O)c(Cc7ccc(Cl)cc7C#N)cc65)CCO4)c3)C2)CN1` [Compound 189]: the IC50 lay within 15.8 to 31.6 nM on cIAP1-BIR3; 3160 to 10000 nM on cIAP2-BIR2; 1000 to 3160 nM at cIAP1-BIR2; 15.8 to 31.6 nM at cIAP2-BIR3; 31.6 to 501 nM on XIAP-BIR3. Moreover, on cIAP1-BIR3, the “cIAP1 BIR3 vs BIR2 separation window” value is “+++ (10,000>FS>1,000)”. On cIAP2-BIR3, the “cIAP2 BIR3 vs BIR2 separation window” value was “+++ (10,000>FS>1,000)”. For the same molecule, the EC50 in experiment [1] was 0.49 to 12.6 nM.
`C[C@@H]1CN(CC(=O)N2CC(C)(C)c3[nH]c(=O)c(Cc4ccc(Cl)cc4)cc32)[C@@H](CN2CCO[C@H](C(=O)NCc3ccc(CNC(=O)[C@@H]4CN(C[C@H]5CN[C@H](C)CN5CC(=O)N5CC(C)(C)c6[nH]c(=O)c(Cc7ccc(Cl)cc7)cc65)CCO4)cc3)C2)CN1` [Compound 161, (2S,2′S)-N,N′-(1,4-phenylenebis(methylene)) bis(4-(((2R,5R)-1-(2-(6-(4-chlorobenzyl)-3,3-dimethyl-5-oxo-2,3,4,5-tetrahydro-1H-pyrrolo[3,2-b]pyridin-1-yl)-2-oxoethyl)-5-methylpiperazin-2-yl)methyl)morpholine-2-carboxamide)]: the IC50 at cIAP1-BIR3 is 1.38 to 7.94 nM; on cIAP2-BIR2, 10000 to 51300 nM; at cIAP1-BIR2, 22.4 to 1000 nM; at cIAP2-BIR3 it was 1.38 to 7.94 nM; on XIAP-BIR3, 7.94 to 15.8 nM. The “cIAP1 BIR3 vs BIR2 separation window” value at cIAP1-BIR3 is “+++ (10,000>FS>1,000)”. The “cIAP2 BIR3 vs BIR2 separation window” value at cIAP2-BIR3 was “++++ (FS>10,000)”. Further, the EC50 in experiment [1] was 0.49 to 12.6 nM.
In the case of `C[C@@H]1CN(CC(=O)N2CC(C)(C)c3[nH]c(=O)c(Cc4ccc(Cl)cc4O)cc32)[C@@H](CN2CCO[C@H](C(=O)NCc3ccc(CNC(=O)[C@@H]4CN(C[C@H]5CN[C@H](C)CN5CC(=O)N5CC(C)(C)c6[nH]c(=O)c(Cc7ccc(Cl)cc7O)cc65)CCO4)cc3)C2)CN1` [Compound 164, (2S,2′S)-N,N′-(1,4-phenylenebis(methylene)) bis(4-(((2R,5R)-1-(2-(6-(4-chloro-2-hydroxybenzyl)-3,3-dimethyl-5-oxo-2,3,4,5-tetrahydro-1H-pyrrolo[3,2-b]pyridin-1-yl)-2-oxoethyl)-5-methylpiperazin-2-yl)methyl)morpholine-2-carboxamide)], the IC50 at cIAP1-BIR3 fell in the range of 1.38 to 7.94 nM; on cIAP2-BIR2, 22.4 to 1000 nM; on cIAP1-BIR2 it was 22.4 to 1000 nM; on cIAP2-BIR3, 1.38 to 7.94 nM; at XIAP-BIR3, 7.94 to 15.8 nM. Besides, the “cIAP1 BIR3 vs BIR2 separation window” value at cIAP1-BIR3 was “++ (1,000>FS>100)”. On cIAP2-BIR3, the “cIAP2 BIR3 vs BIR2 separation window” value is given as “++ (1,000>FS>100)”. Moreover, the EC50 in experiment [1] is 63.1 to 316 nM.
Regarding `C[C@@H]1CN(CC(=O)N2CC(C)(C)c3[nH]c(=O)c(Cc4c(F)cc(F)cc4F)cc32)[C@@H](CN2CCO[C@H](COc3cccc(OC[C@@H]4CN(C[C@H]5CN[C@H](C)CN5CC(=O)N5CC(C)(C)c6[nH]c(=O)c(Cc7c(F)cc(F)cc7F)cc65)CCO4)c3)C2)CN1` [Compound 188], the IC50 was in the range of 15.8 to 31.6 nM at cIAP1-BIR3; 1000 to 3160 nM on cIAP2-BIR2; 1000 to 3160 nM on cIAP1-BIR2; 15.8 to 31.6 nM at cIAP2-BIR3; 15.8 to 31.6 nM at XIAP-BIR3. For the same molecule, the “cIAP1 BIR3 vs BIR2 separation window” value at cIAP1-BIR3 is recorded as “+++ (10,000>FS>1,000)”. The “cIAP2 BIR3 vs BIR2 separation window” value at cIAP2-BIR3 was “++ (1,000>FS>100)”. Moreover, in experiment [1], the EC50 was 0.49 to 12.6 nM.
`C[C@@H]1CN(CC(=O)N2CC(C)(C)c3[nH]c(=O)c(Cc4c(F)c(F)c(F)c(F)c4F)cc32)[C@@H](CN2CCO[C@H](C(=O)NCc3ccc(CNC(=O)[C@@H]4CN(C[C@H]5CN[C@H](C)CN5CC(=O)N5CC(C)(C)c6[nH]c(=O)c(Cc7c(F)c(F)c(F)c(F)c7F)cc65)CCO4)cc3)C2)CN1` [Compound 176, (2S,2′S)-N,N′-(1,4-phenylenebis(methylene)) bis(4-(((2R,5R)-1-(2-(3,3-dimethyl-5-oxo-6-((perfluorophenyl)methyl)-2,3,4,5-tetrahydro-1H-pyrrolo[3,2-b]pyridin-1-yl)-2-oxoethyl)-5-methylpiperazin-2-yl)methyl)morpholine-2-carboxamide)]: the IC50 on cIAP1-BIR3 is 31.6 to 501 nM; on cIAP2-BIR2, 3160 to 10000 nM; at cIAP1-BIR2, 3160 to 10000 nM; on cIAP2-BIR3 it was 15.8 to 31.6 nM; at XIAP-BIR3, 31.6 to 501 nM. The “cIAP1 BIR3 vs BIR2 separation window” value on cIAP1-BIR3 is reported as “++ (1,000>FS>100)”. On cIAP2-BIR3, the “cIAP2 BIR3 vs BIR2 separation window” value was “+++ (10,000>FS>1,000)”. Further, the EC50 in experiment [1] is 0.49 to 12.6 nM.
With `C[C@@H]1CN(CC(=O)N2CC(C)(C)c3[nH]c(=O)c(Cc4ccc(F)cc4)cc32)[C@@H](CN2CCO[C@H](C(=O)NCCCCCCCCCCNC(=O)[C@@H]3CN(C[C@H]4CN[C@H](C)CN4CC(=O)N4CC(C)(C)c5[nH]c(=O)c(Cc6ccc(F)cc6)cc54)CCO3)C2)CN1` [Example 120, (2S,2'S)-N,N′-(decane-1,10-diyl)bis(4-(((2R,5R)-1-(2-(6-(4-fluorobenzyl)-3,3-dimethyl-5-oxo-2,3,4,5-tetrahydro-1H-pyrrolo[3,2-b]pyridin-1-yl)-2-oxoethyl)-5-methylpiperazin-2-yl)methyl)morpholine-2-carboxamide)], the IC50 on cIAP1-BIR3 is 7.94 to 15.8 nM; at cIAP2-BIR2, 1000 to 3160 nM; on cIAP1-BIR2, 1000 to 3160 nM; at cIAP2-BIR3, 7.94 to 15.8 nM; on XIAP-BIR3 it was 15.8 to 31.6 nM. At cIAP1-BIR3, the “cIAP1 BIR3 vs BIR2 separation window” value is given as “+++ (10,000>FS>1,000)”. Further, the “cIAP2 BIR3 vs BIR2 separation window” value at cIAP2-BIR3 is reported as “+++ (10,000>FS>1,000)”. Besides, the EC50 in experiment [1] was 63.1 to 316 nM.
